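Each compound was tested at five concentrations against cells in 96-well plates for 48 hours. TGI is the concentration that stops growth completely.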 Where a SMILES comes first, the peptide text is derived from it. Square brackets hold non-standard residues; d marks the D form. Peptide text beside a SMILES is read from it. [ ]: non-standard residue; d: D form. The star is where a group is joined. ξ: configuration not given here. Phe(4-NO2) = N[CH](Cc1ccc([N+](=O)[O-])cc1)C(=O)O; ξPhe(4-NO2) = NC(Cc1ccc([N+](=O)[O-])cc1)C(=O)O; Boc = CC(C)(C)OC(=O)*

Test systems include NCI/ADR-RES ovarian; TK-10 renal; NCI-H460 lung; SN12C renal; MDA-MB-435; IGROV1 ovarian; UACC-62 melanoma; OVCAR-5 ovarian; NCI-H522 lung.
Experiment in all cases: DTP human tumour cell line panel, 48 h

In the case of `O=c1oc2ccccc2n1CCCn1c(=O)oc2ccccc21`, the TGI in the test on NCI/ADR-RES ovarian, with TK-10 renal, in the test on NCI-H460 lung, in the test with SN12C renal, with MDA-MB-435 and with IGROV1 ovarian was over 100 µM in each case. For the same molecule, the TGI with UACC-62 melanoma and in the test with OVCAR-5 ovarian was over 100 µM throughout.

Take `COc1ccc2c(c1)C=C(C(C)(C)C)NS2(=O)=O`: the TGI in the test with TK-10 renal, in the test on NCI-H460 lung, with SN12C renal, in the test with NCI-H522 lung, with IGROV1 ovarian and in the test on UACC-62 melanoma was over 100 µM in each case. The TGI – broadly, the concentration giving total growth inhibition – in the test on OVCAR-5 ovarian was over 100 µM.

For the molecule `CCOC(=O)c1csc(-c2nc(CCNC(=O)c3ccccc3)sc2Cl)n1`, the TGI in the test on NCI/ADR-RES ovarian, in the test on TK-10 renal, in the test on NCI-H460 lung, in the test on SN12C renal, in the test with MDA-MB-435 and with IGROV1 ovarian was over 100 µM throughout. Also, the TGI with UACC-62 melanoma and in the test on OVCAR-5 ovarian was over 100 µM in each case.

`CC(c1ccccc1)C(O)S(=O)(=O)O` (configuration not stated): the TGI with TK-10 renal, with NCI-H460 lung, with SN12C renal, in the test on NCI-H522 lung, in the test with IGROV1 ovarian and in the test with UACC-62 melanoma was over 100 µM in each case. In addition, the TGI in the test with OVCAR-5 ovarian is over 100 µM.

For the molecule `CC(C)(C)OC(=O)N1CCC(NC(=O)NC2CCN(C(=O)OC(C)(C)C)CC2)CC1`, the TGI in the test on NCI/ADR-RES ovarian, in the test with TK-10 renal, with NCI-H460 lung, in the test with SN12C renal, with NCI-H522 lung and in the test on MDA-MB-435 was over 100 µM throughout. The TGI in the test with IGROV1 ovarian, in the test with UACC-62 melanoma and in the test on OVCAR-5 ovarian was over 100 µM each time.

As for `CCOC(=O)/C=C/c1c[nH]c(=O)[nH]c1=O`, the TGI with NCI/ADR-RES ovarian, in the test on NCI-H460 lung, in the test with SN12C renal, with NCI-H522 lung, in the test with IGROV1 ovarian and in the test with UACC-62 melanoma was over 75 µM each time. In the test on OVCAR-5 ovarian, this molecule had a TGI of over 75 µM.

`COc1cc(OC)cc(C(=O)Cc2c(C(=O)c3ccccc3)c3ccccc3n2C(=O)c2ccccc2)c1`: the TGI with TK-10 renal is 98.3 µM; with NCI-H460 lung it was over 100 µM; with SN12C renal, over 100 µM; in the test on NCI-H522 lung, 45 µM; in the test with IGROV1 ovarian it was over 100 µM; in the test with UACC-62 melanoma, over 100 µM. Further, the total growth inhibition concentration (TGI) with OVCAR-5 ovarian was over 100 µM.

On to `CCNC(=O)CNC(=O)C(Cc1ccc([N+](=O)[O-])cc1)NC(=O)OC(C)(C)C` (configuration not stated) (Boc-[ξPhe(4-NO2)]-Gly-NHEt), for which the total growth inhibition concentration (TGI) in the test on NCI/ADR-RES ovarian, in the test on TK-10 renal, with NCI-H460 lung, with SN12C renal, with NCI-H522 lung and in the test on MDA-MB-435 was over 100 µM throughout. In addition, the TGI with IGROV1 ovarian, with UACC-62 melanoma and in the test with OVCAR-5 ovarian was over 100 µM each time.

With `COC(=O)CCC(NC(=O)C(CCC(=O)OC)NC(=O)C(CCC(=O)OC)NC(=O)C(CCC(=O)OC)NC(=O)C(CCC(=O)OC)NC(=O)C(Cc1ccc([N+](=O)[O-])cc1)NC(=O)C(CCC(=O)OC)NC(=O)C(CCC(=O)OC)NC(=O)C(CCC(=O)OC)NC(=O)C(CCC(=O)OC)NC(=O)C(CCC(=O)OC)NC(C)=O)C(N)=O` (configuration not stated) (Ac-E(OMe)E(OMe)E(OMe)E(OMe)E(OMe)[Phe(4-NO2)]E(OMe)E(OMe)E(OMe)E(OMe)E(OMe)-NH2; configuration not given here), the TGI in the test on NCI/ADR-RES ovarian, with TK-10 renal, with NCI-H460 lung, with SN12C renal, in the test on NCI-H522 lung and in the test on MDA-MB-435 was over 100 µM throughout. For the same molecule, the TGI in the test on IGROV1 ovarian and in the test on OVCAR-5 ovarian was over 100 µM in each case.

Turning to `CCOC(=O)C1=C(C)N(C2OC(COC(C)=O)C(OC(C)=O)C(OC(C)=O)C2OC(C)=O)C(=O)NC1c1ccccc1` (configuration not stated), the TGI is over 100 µM in the test on NCI-H460 lung; over 100 µM with SN12C renal; 63.4 µM with NCI-H522 lung; over 100 µM in the test on IGROV1 ovarian; over 100 µM with UACC-62 melanoma; over 100 µM in the test on OVCAR-5 ovarian.

As to `COc1ccc(NC(=S)Nc2c(C)n(C)n(-c3ccccc3)c2=O)cc1`, the TGI in the test with NCI/ADR-RES ovarian, in the test with TK-10 renal, in the test with NCI-H460 lung, in the test with NCI-H522 lung, in the test on MDA-MB-435 and in the test with IGROV1 ovarian was over 100 µM each time. For the same molecule, the TGI in the test on UACC-62 melanoma and with OVCAR-5 ovarian was over 100 µM each time.

For `NC(Cc1ccc(O)cn1)C(=O)O` (configuration not stated), the TGI with NCI/ADR-RES ovarian, in the test on TK-10 renal, in the test on NCI-H460 lung, with SN12C renal, in the test with NCI-H522 lung and in the test on MDA-MB-435 was over 100 µM throughout. Moreover, the TGI with IGROV1 ovarian and with OVCAR-5 ovarian was over 100 µM in each case.

Source of the values: PubChem BioAssay (NCI).
